Experiments:
[1] = test system: model of hepatic carcinogenesis; conditions: cited from earlier work
hepatocarcinogenesis = conditions: cited from earlier work
[2] = biological target: T1, kynurenine 3-monooxygenase (KMO) (Mus musculus, UniProt Q91WN4); experiment: Ro-61-8048 treatment of C57BL/6 mice previously fed DDC diet (liver NAD+ and DNA damage); assay type: in vivo; conditions: 25 mg/Kg intraperitoneally for 3 consecutive days after 4 days DDC diet, vs DMSO
T1 construct: supplying C57BL/6 mice for 4 days with a DDC-supplemented diet; from tissue; host or cells: liver of living C57BL/6 mice (in vivo dosing)
Protocol: Freshly harvested murine livers were fixed immediately in 10% buffered formalin solution overnight and embedded in paraffin. Sections of 3 μm were deparafinized, rehydrated and antigen retrieved by using 1M sodium citrate buffer (pH 6.5). After blocking endogenous peroxidase using 3% H2O2 (in methanol) for 5 min, sections were then blocked with 1:200 goat serum 5% BSA/PBST for 1 h at RT. Furthermore, sections were incubated with primary antibodies overnight at 4° C., after which Vectastain ABC kit (Vector Laboratories, Inc) was used, following manufacturer's instructions. Sections were then incubated with 33-diaminobenzidinetetracloride (DBA) and counterstained with hematoxylin. In the case of immunofluorescence, sections were incubated with PE-conjugated secondary antibodies (1:500) for 1 h at RT, followed by DAPI staining. Quantification was performed either by counting the number of positive cells in a minimum of six 10× or 20× microscopic fields, or the percentage of positive area using Color Deconvolution plug-in in Image J.
NAD+ levels were determined using a commercial kit (Enzychrom, BioAssays Systems, CA), and as previously described (Canto et al., 2012, Cell Metab 15, 838-847). NAD+/NADH assay kit is based on a […] cycling reaction, in which the formed NADH reduces a formazan (MTT) reagent. […]

advanced HCC = conditions: patients with advanced HCC; cited from earlier work

T1 sequence (Q91WN4 whole entry): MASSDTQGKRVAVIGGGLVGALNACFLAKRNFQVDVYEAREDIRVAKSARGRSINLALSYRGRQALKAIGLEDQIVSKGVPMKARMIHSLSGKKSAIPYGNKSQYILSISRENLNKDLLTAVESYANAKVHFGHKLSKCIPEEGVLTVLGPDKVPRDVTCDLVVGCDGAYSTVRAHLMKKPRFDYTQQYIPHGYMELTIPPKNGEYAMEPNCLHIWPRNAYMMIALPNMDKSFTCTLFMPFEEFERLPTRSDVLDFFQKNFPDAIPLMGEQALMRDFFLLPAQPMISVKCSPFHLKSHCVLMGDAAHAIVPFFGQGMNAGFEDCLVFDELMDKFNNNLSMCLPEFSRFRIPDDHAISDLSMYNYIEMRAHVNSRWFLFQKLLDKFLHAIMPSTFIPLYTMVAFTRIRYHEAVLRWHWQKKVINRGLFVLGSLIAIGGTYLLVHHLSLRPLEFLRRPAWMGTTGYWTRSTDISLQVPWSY

Compound: NC(=O)c1cccnc1 [nicotinamide]
- number of foci, their diameter or proportion of liver occupied by loci [1]: no effect
- hepatocarcinogenesis (hepatocarcinogenesis; both in vitro and in vivo): effectively inhibits
- formation of loci and adenomas (hepatocarcinogenesis; in vivo): lower formation

Compound: COc1ccc(S(=O)(=O)Nc2nc(-c3cccc([N+](=O)[O-])c3)cs2)cc1OC [Ro-61-8048]
- DNA damage foci (γH2AX) in livers [2]: significantly elevated
- NAD+ concentrations in livers [2]: reduced

Compound: CNC(=O)c1cc(Oc2ccc(NC(=O)Nc3ccc(Cl)c(C(F)(F)F)c3)cc2)ccn1 [sorafenib]
- prolongation of survival compared to placebo (advanced HCC): around 2 months

Reference: US20170312300A1, “Methods for Treating Cancer” (Fundacion Centro National de Investigaciones Oncolgicas …, priority 2014, published 2017)
